Broadly, the melting point is the temperature of the solid-liquid transition.

Molecules are shown by their SMILES.

In the case of `C#CCn1c(C)nc2ccccc21`, the melting point is 67 to 69 °C.

Regarding `CCS(=O)(=O)N(C)CC(=O)O`, the melting point is 70 to 72 °C.

For `COc1ccc(N)cc1OCc1cn2ccccc2n1`, the melting point was in the range of 190 to 192 °C.

In turn, `Cc1sc(N)nc1-c1ccc(F)c(F)c1` came in with a melting point of 135 to 137 °C.

As for `Nc1cc(C2CCC2)nn1-c1ccccc1`, the melting point lay within 87 to 89 °C.

Take `Cn1cc(-c2cncc(C(=O)O)c2)cn1`: the melting point was in the range of 260 to 262 °C.

`Cc1ccc(NS(=O)(=O)c2ccc(N)cc2)cc1C` registered a melting point of 150 to 152 °C.

On to `NC(=O)CN1CC(O)CC1=O` (centres undefined), for which the melting point was 133 to 135 °C.

In turn, `CC(C)c1ccc(C(=O)O)c(O)c1` had a melting point of 93 to 95 °C.

In the case of `Nc1cccc(-c2ccc3c(c2)CCO3)c1`, the melting point is 64 to 66 °C.

In the case of `COC(=O)c1cnn2ccccc12`, the melting point lay within 79 to 81 °C.

Regarding `O=C(NO)c1c(F)cccc1Cl`, the melting point lay in the range of 149 to 151 °C.

The compound `Cn1[nH]c2c(c1=N)CCC2` came in with a melting point of 134 to 136 °C.

Regarding `COc1cc(C=CC(=O)O)ccc1F`, the melting point is 211 to 213 °C.

In the case of `O=C(CCl)Nc1ccc2c(c1)OCCCO2`, the melting point was 108 to 110 °C.

Turning to `N#Cc1ccc2c(n1)CCCC2`, the melting point was in the range of 69 to 71 °C.

`O=C(O)C1CC(c2cc(F)ccc2F)=NO1` (centres undefined) displayed a melting point of 135 to 137 °C.

Compound `CCOc1cccnc1C(=O)O` gave a melting point of 130 to 132 °C.

`CCn1c(=O)n(CCC(=O)O)c2ccccc21`: the melting point is 179 to 181 °C.

`COC(=O)c1sc2nc(CCl)[nH]c(=O)c2c1C` had a melting point of 276 to 278 °C.

Consider `CC(C)(C)OC(=O)NCc1cn[nH]c1`, for which the melting point lay in the range of 104 to 106 °C.

As for `N#CC1(N2C(=O)C=CC2=O)CCCC1`, the melting point was in the range of 43 to 45 °C.

In the case of `CS(=O)c1ccc(C=O)cc1` (centres undefined), the melting point lay in the range of 88 to 90 °C.

`O=C(O)c1sc2cc(C(F)(F)F)ccc2c1Cl` had a melting point of 205 to 207 °C.

In turn, `NC(=O)COc1cccc(CO)c1` displayed a melting point of 116 to 118 °C.

In turn, `Cc1ccc(C(=O)O)cc1NCc1ccc(Br)o1` registered a melting point of 125 to 127 °C.

For the compound `Sc1ccc(Cl)nn1`, the melting point lay in the range of 148 to 150 °C.

Compound `O=C(O)Cc1ccc(S(=O)(=O)C(F)F)cc1` returned a melting point of 139 to 141 °C.

With `COc1cc(OC)c(N(C)S(=O)(=O)c2cccc(C(=O)O)c2)cc1Cl`, the melting point fell in the range of 208 to 210 °C.

In turn, `NC(=S)Nc1cccc2ncccc12` displayed a melting point of 223 to 225 °C.

`CCN(CC)Cc1ccc(C(=O)O)cc1` gave a melting point of 154 to 156 °C.

Consider `O=C(O)C1CCCCN1c1ncccn1` (centres undefined), for which the melting point lay in the range of 156 to 158 °C.

Consider `O=c1cccn[nH]1`, for which the melting point was in the range of 94 to 98 °C.

In turn, `CC(Cl)C(=O)N1CCN(c2ncccn2)CC1` (centres undefined) registered a melting point of 96 to 98 °C.

Turning to `Cc1ccc(N(C(=O)CCl)C2C=CS(=O)(=O)C2)cc1C` (centres undefined), the melting point fell in the range of 136 to 138 °C.

The compound `O=C(O)C(=O)Cc1ccc(Cl)cc1` registered a melting point of 192 to 194 °C.

On to `CCNS(=O)(=O)c1cc(/C=C/C(=O)O)ccc1OC`, for which the melting point was in the range of 198 to 200 °C.

The compound `COC(=O)c1cc(Cl)c(NC(=O)OCC(F)(F)F)cc1OC` came in with a melting point of 100 to 102 °C.

Regarding `COc1ncc(Br)cc1CC(=O)O`, the melting point lay within 129 to 131 °C.

For the compound `Cc1ccc(C2(C(=O)O)CCOCC2)cc1`, the melting point is 189 to 191 °C.

Take `NS(=O)(=O)c1ccc(N2CCCC2=O)cc1`: the melting point was in the range of 247 to 249 °C.

`Cn1nc(I)c2ncccc21` showed a melting point of 186 to 188 °C.

The compound `C1=C(c2c[nH]c3ncccc23)CCNC1` registered a melting point of 181 to 183 °C.

On to `Nc1cc(S(=O)(=O)N2CCCC2)ccc1O`, for which the melting point fell in the range of 163 to 165 °C.

As to `CC(=CC(=O)O)c1ccccc1F`, the melting point is 101 to 103 °C.

For the compound `CN(C)CC(C)(C)CNC(N)=S`, the melting point was 121 to 123 °C.

As to `O=C(O)c1cc(-c2ccccc2)cc(Cl)c1O`, the melting point fell in the range of 202 to 204 °C.

Consider `Cc1cc(C(=O)O)c(C(=O)O)s1`, for which the melting point fell in the range of 210 to 212 °C.

Compound `NS(=O)(=O)c1cc2c(cc1Br)CCCC(=O)N2` displayed a melting point of 249 to 251 °C.

The compound `Cc1[nH]n(C)c(=N)c1C` displayed a melting point of 109 to 111 °C.

Compound `Nc1ccccc1C(=O)Nc1ccc(F)cc1` gave a melting point of 109 to 112 °C.

On to `CCn1cnnc1-c1ccc(C(=O)O)cc1`, for which the melting point is 211 to 213 °C.

For `Nc1nnc2ccc(Cl)nn12`, the melting point was 274 to 276 °C.

Regarding `CC1CCCN1C(=O)c1ccc(C#N)cc1` (centres undefined), the melting point lay in the range of 87 to 89 °C.

On to `O=C(O)c1ccc(CS(=O)(=O)c2ccccc2)o1`, for which the melting point lay within 180 to 182 °C.

For `Sc1nnc2c(Cl)cc(Cl)cn12`, the melting point lay in the range of 257 to 259 °C.

As to `O=C(c1ccc(CCl)cc1)N1CCCC1`, the melting point was in the range of 198 to 200 °C.

For `Cc1cc(C)cc(N2CCC(C(=O)O)C2=O)c1` (centres undefined), the melting point lay in the range of 115 to 117 °C.

The compound `COC(=O)CNC(=O)Cc1ccc(N)cc1` yielded a melting point of 93 to 95 °C.

Regarding `Cn1cc(C(=O)c2cccc(F)c2)cn1`, the melting point was in the range of 103 to 105 °C.

In the case of `COc1ccc2c(c1)OCC(C(=O)O)=C2`, the melting point was 201 to 203 °C.

In the case of `O=C(O)CCCOc1cccc(F)c1`, the melting point fell in the range of 51 to 53 °C.

`O=C(O)c1csc2c1CCCC2` returned a melting point of 159 to 161 °C.

In the case of `O=S1(=O)CC(O)C(NCCO)C1` (centres undefined), the melting point fell in the range of 115 to 117 °C.

With `Nc1cnc(Cl)cc1C(=O)O`, the melting point lay within 289 to 291 °C.

Regarding `COc1ccc(C(C)(C#N)NC(=O)C(F)(F)F)cc1OC` (centres undefined), the melting point is 145 to 147 °C.

`O=C(c1cc(Cl)nc2ccccc12)N1CCOCC1` registered a melting point of 175 to 177 °C.

Take `COc1cc(N)ccc1NC(C)=O`: the melting point fell in the range of 121 to 123 °C.

`CC(C)NC(N)=O` showed a melting point of 154 to 156 °C.

The compound `CC1CC(C(F)(F)F)c2c(n(C)[nH]c2=O)N1` (centres undefined) had a melting point of 202 to 204 °C.

As for `CCN(CC)S(=O)(=O)c1cccc(-c2nnc(S)o2)c1`, the melting point lay in the range of 95 to 101 °C.

`Nc1cc(N2CCNC2=O)ccc1Cl` displayed a melting point of 224 to 226 °C.

Take `O=C1CC(C(=O)O)CS1` (centres undefined): the melting point was in the range of 108 to 110 °C.

`Nc1ccnc(Oc2ccccc2)c1` gave a melting point of 52 to 54 °C.

For the compound `NC(=O)C(Cl)c1ccc(Br)cc1` (centres undefined), the melting point fell in the range of 164 to 166 °C.

The compound `O=C(CCl)c1cn(-c2cccc(C(F)(F)F)c2)nn1` displayed a melting point of 162 to 164 °C.

Take `O=C(O)c1ccc(SC(F)F)cc1`: the melting point was in the range of 154 to 156 °C.

`O=C(c1cccnc1Cl)N1CCCC1` had a melting point of 77 to 79 °C.

The compound `COC(=O)NC1CCC(O)CC1` (centres undefined) yielded a melting point of 139 to 141 °C.

The compound `COc1ccc(O)cc1C(C)=O` showed a melting point of 78 to 80 °C.

The compound `Cc1[nH]c(-c2ncccn2)nc(=O)c1CC(=O)O` yielded a melting point of 194 to 196 °C.

The compound `Cn1c(Cl)cnc1CC(N)=S` gave a melting point of 142 to 144 °C.

Turning to `NC(=O)CC1CCCC1`, the melting point lay in the range of 149 to 151 °C.

`CCNS(=O)(=O)c1ccc(/C=C/C(=O)O)cc1`: the melting point was 248 to 250 °C.

Regarding `COc1ccc(S(=O)(=O)Cl)cc1C(=O)O`, the melting point is 142 to 144 °C.

`O=C(Cn1cccn1)NC1CCCCC1` yielded a melting point of 116 to 118 °C.

Turning to `CC(CN(C)C(=O)OC(C)(C)C)C(N)=NO` (centres undefined), the melting point is 124 to 126 °C.

In turn, `COc1cc(N)c([N+](=O)[O-])cc1OC` had a melting point of 174 to 176 °C.

Compound `CCC(=O)NCc1cc(S(N)(=O)=O)ccc1OC` registered a melting point of 119 to 121 °C.

In the case of `CC(Oc1cccc(Br)c1)C(=O)NN` (centres undefined), the melting point is 113 to 115 °C.

Take `Cc1ccc(C(C)(C)CC(=O)O)cc1`: the melting point lay within 50 to 57 °C.

In the case of `O=C(O)c1nnn(-c2ccc(F)cc2)c1C1CC1`, the melting point was in the range of 173 to 175 °C.

On to `O=C(O)C(Oc1ccccc1)c1ccccc1` (centres undefined), for which the melting point fell in the range of 103 to 105 °C.

Compound `NCC(O)c1ccc(F)cc1` (centres undefined) showed a melting point of 65 to 67 °C.

On to `OCc1cn(-c2ccccc2Cl)nn1`, for which the melting point fell in the range of 87 to 89 °C.

As to `Cc1nn(-c2ccccc2)c(N)c1C(F)(F)F`, the melting point lay within 77 to 79 °C.

In turn, `O=C(O)c1cnn(-c2ccccc2Cl)c1` registered a melting point of 170 to 172 °C.

In the case of `CC(C)C(NC(=O)CCc1ccccc1)C(=O)O` (centres undefined), the melting point was 147 to 149 °C.

Turning to `Nc1cccc(-c2ccc3c(c2)CCO3)n1`, the melting point was 123 to 125 °C.

In turn, `N#CCC(=O)c1c(Cl)cccc1Cl` came in with a melting point of 63 to 65 °C.

In turn, `Cc1cccc(C)c1C=O` registered a melting point of 27 to 30 °C.

Compound `Nc1ccc(OCc2cccc(F)c2)c(F)c1` came in with a melting point of 43 to 45 °C.

For the compound `Cc1cc(N)n(C2CCOC2)n1` (centres undefined), the melting point fell in the range of 91 to 93 °C.

Compound `Cc1nc(O)c2c(n1)CCCC2` registered a melting point of 206 to 208 °C.

Take `CCOC(=O)Cc1cc(=O)oc2ccc(O)cc12`: the melting point fell in the range of 173 to 175 °C.

Take `OCC1CNc2ccccc2C1` (centres undefined): the melting point was 79 to 81 °C.

The compound `Cn1cc(NC(=O)OCC(F)(F)F)ccc1=O` came in with a melting point of 208 to 210 °C.

In turn, `CCOC(=O)/C(C#N)=C\Nc1ccc(Cl)cc1F` had a melting point of 154 to 156 °C.

As to `COC(=O)CCCc1nnc(N)s1`, the melting point lay in the range of 149 to 151 °C.

Consider `O=C(O)c1ccc(CS)c(F)c1`, for which the melting point lay in the range of 136 to 138 °C.

On to `CCOC(=O)c1cnn2c1NCCC2`, for which the melting point lay within 159 to 161 °C.

`Nc1nc(-c2ccccc2)cn1N` came in with a melting point of 258 to 260 °C.

In the case of `CNC(=O)Cc1ccccc1N`, the melting point lay in the range of 85 to 87 °C.

Regarding `O=C(O)c1nc(-c2cccs2)n(-c2cccc(F)c2)n1`, the melting point lay within 162 to 164 °C.

Turning to `CCOc1oc(-c2ccccc2)nc1C(=O)O`, the melting point lay in the range of 147 to 149 °C.

In turn, `NC(=O)c1c(F)cc(Br)cc1F` came in with a melting point of 172 to 174 °C.

With `Cc1cc(Cl)nc(-c2ccc([N+](=O)[O-])cc2)n1`, the melting point lay within 184 to 186 °C.

Compound `Cc1n[nH]c(C(=O)O)c1O` had a melting point of 184 to 186 °C.

With `CCc1ccccc1NC(=O)CC(C)=O`, the melting point lay within 89 to 91 °C.

Turning to `NS(=O)(=O)c1cc([N+](=O)[O-])ccc1Cl`, the melting point lay in the range of 155 to 157 °C.

`Cc1ccc(NC(=O)C2CCNCC2)nc1` came in with a melting point of 145 to 147 °C.

In the case of `CC(=O)Nc1cc(N)ccc1Cl`, the melting point is 200 to 202 °C.

Regarding `Nc1ccc(C(=O)Nc2ccccc2)cc1`, the melting point fell in the range of 134 to 136 °C.

Compound `CC(C)(C)n1nc(C(=O)O)cc1C1CC1` registered a melting point of 119 to 121 °C.

These data come from a melting point compilation (Tetko et al.).
